The results in this text go back to the NIST ThermoML archive (doi:10.1016/j.fluid.2010.03.027).

± gives the expanded uncertainty stated by the source.

For series [1] the following is noted: Liquid, Closed cell (Static) method.
Series [2] can be described thus: activity coefficient (dimensionless); of the first substance listed, at infinite dilution; xn = mol fraction of the nth substance listed. Conditions: 101 kPa, Liquid, dilutor technique, x1 = 0.

In the case of `CSC` [2-thiapropane], the vapor or sublimation pressure (commonly the equilibrium pressure above the liquid or solid) was 53.2 ± 1.2 kPa in series [1] (293.94 K) and 108.8 ± 1.2 kPa in series [1] (312.86 K).
Take `CSC` [2-thiapropane] + C=C(C)CC(C)(C)C: the activity coefficient in series [2] (288.15 K) came to 1.5 ± 0.66; in series [2] (298.15 K), 1.45 ± 0.52; in series [2] (303.15 K), 1.4 ± 0.44.
On to `CSC` [2-thiapropane] + C=CCCCC, for which the values for the activity coefficient in series [2] (288.15 K), in series [2] (298.15 K) and in series [2] (303.15 K) were 1.77 ± 0.68, 1.71 ± 0.52 and 1.64 ± 0.46, respectively.
On the same counts, the results for `CSC` [2-thiapropane] + CC(C)CC(C)(C)C are 1.77 ± 0.7, 1.72 ± 0.54 and 1.67 ± 0.3.
On to `CSC` [2-thiapropane] + CCCCCC, for which the activity coefficient stood at 2.16 ± 0.9 in series [2] (288.15 K), 2.04 ± 0.78 in series [2] (293.15 K), 1.95 ± 0.68 in series [2] (298.15 K) and 1.91 ± 0.6 in series [2] (303.15 K).
In the case of `CCC` [propane], the “vapor or sublimation pressure” value in series [1] (293.94 K) is listed as 852.6 ± 2.3 kPa; in series [1] (293.97 K), 853.1 ± 2.3 kPa; in series [1] (312.85 K), 1358.5 ± 2.8 kPa; in series [1] (312.87 K) it was 1361.3 ± 2.8 kPa.
Take `C1CCSC1` [tetrahydrothiophene]: the “vapor or sublimation pressure” value in series [1] (293.97 K) came out at 2.1 ± 1.2 kPa; in series [1] (312.87 K) it was 5.9 ± 1.2 kPa.
